{"source": "ChEMBL document CHEMBL1926626", "about": "“Design and synthesis of benzo[c,d]indolone-pyrrolobenzodiazepine conjugates as potential anticancer agents” (Bioorg Med Chem, 2012)", "key": {"A549 [1]": {"system": "A549", "experiment": "Anticancer activity against human A549 cells after 48 hrs by MTT assay", "settings": "A549, 48 h"}, "A-431": {"system": "A-431", "experiment": "Anticancer activity against human A431 cells after 48 hrs by MTT assay", "assay_type": "functional, cell-based", "settings": "A-431, 48 h"}, "COLO 205": {"system": "COLO 205", "experiment": "Anticancer activity against human COLO205 cells after 48 hrs by MTT assay", "assay_type": "functional, cell-based", "settings": "COLO 205, 48 h"}, "PC-3": {"system": "PC-3", "experiment": "Anticancer activity against human PC3 cells after 48 hrs by MTT assay", "assay_type": "functional, cell-based", "settings": "PC-3, 48 h"}, "HEK293": {"system": "HEK293", "experiment": "Cytotoxicity activity against human HEK293 cells after 48 hrs by MTT assay", "assay_type": "cell-based", "settings": "hek293, 48 h"}, "Nucleic Acid": {"system": "Nucleic Acid", "experiment": "Binding affinity to calf thymus DNA assessed as change in melting temperature at compound:DNA molar ratio of 1:5 after 18 hrs at 37 degC by thermal denaturation assay (RVb = 0.3 to 3.1 degC)", "assay_type": "nucleic-acid assay", "settings": "Bos taurus"}, "A549 [2]": {"system": "A549", "experiment": "Induction of cell cycle arrest in human A549 cells assessed as accumulation at G1 phase at 1 uM after 48 hrs by propidium iodide staining-based flow cytometry (reference value: 76.31 %)", "assay_type": "functional"}, "A549 [3]": {"system": "A549", "experiment": "Induction of cell cycle arrest in human A549 cells assessed as accumulation at S phase at 1 uM after 48 hrs by propidium iodide staining-based flow cytometry (reference value: 13.31 %)", "assay_type": "functional"}, "A549 [4]": {"system": "A549", "experiment": "Induction of cell cycle arrest in human A549 cells assessed as accumulation at G2 phase at 1 uM after 48 hrs by propidium iodide staining-based flow cytometry (reference value: 9.23 %)", "assay_type": "functional"}, "A549 [5]": {"system": "A549", "experiment": "Induction of cell cycle arrest in human A549 cells assessed as accumulation at Sub G1 phase at 1 uM after 48 hrs by propidium iodide staining-based flow cytometry (reference value: 0.67 %)", "assay_type": "functional"}, "A549 [6]": {"system": "A549", "experiment": "Induction of cell cycle arrest in human A549 cells assessed as accumulation at G1 phase at 2 uM after 48 hrs by propidium iodide staining-based flow cytometry (reference value: 76.31 %)", "assay_type": "functional"}, "A549 [7]": {"system": "A549", "experiment": "Induction of cell cycle arrest in human A549 cells assessed as accumulation at S phase at 2 uM after 48 hrs by propidium iodide staining-based flow cytometry (reference value: 13.31 %)", "assay_type": "functional"}, "A549 [8]": {"system": "A549", "experiment": "Induction of cell cycle arrest in human A549 cells assessed as accumulation at G2 phase at 2 uM after 48 hrs by propidium iodide staining-based flow cytometry (reference value: 9.23 %)", "assay_type": "functional"}, "A549 [9]": {"system": "A549", "experiment": "Induction of cell cycle arrest in human A549 cells assessed as accumulation at Sub G1 phase at 2 uM after 48 hrs by propidium iodide staining-based flow cytometry (reference value: 0.67 %)", "assay_type": "functional"}, "A549 [10]": {"system": "A549", "experiment": "Induction of cell cycle arrest in human A549 cells assessed as accumulation at subG1 phase after 48 hrs by propidium iodide staining-based flow cytometry", "assay_type": "functional"}, "A549 [11]": {"system": "A549", "experiment": "Induction of cell cycle arrest in human A549 cells assessed as decrease in accumulation at G0/G1 phase after 48 hrs by propidium iodide staining-based flow cytometry", "assay_type": "functional"}, "A549 [12]": {"system": "A549", "experiment": "Induction of apoptosis in human A549 cells assessed as viable cells at 1 uM after 48 hrs by annexin V-FITC and propidium iodide staining method (RVb = 99.93 %)", "assay_type": "functional", "settings": "A549, 48 h, read-out: Activity"}, "A549 [13]": {"system": "A549", "experiment": "Induction of apoptosis in human A549 cells assessed as early apoptotic cells at 1 uM after 48 hrs by annexin V-FITC and propidium iodide staining method (RVb = 0.01 %)", "assay_type": "functional"}, "A549 [14]": {"system": "A549", "experiment": "Induction of apoptosis in human A549 cells assessed as late apoptotic cells at 1 uM after 48 hrs by annexin V-FITC and propidium iodide staining method (RVb = 0.02 %)", "assay_type": "functional"}, "A549 [15]": {"system": "A549", "experiment": "Induction of apoptosis in human A549 cells assessed as necrotic cells at 1 uM after 48 hrs by annexin V-FITC and propidium iodide staining method (RVb = 0.04 %)", "assay_type": "functional"}, "A549 [16]": {"system": "A549", "experiment": "Induction of apoptosis in human A549 cells assessed as viable cells at 2 uM after 48 hrs by annexin V-FITC and propidium iodide staining method (RVb = 99.93 %)", "assay_type": "functional", "settings": "A549, 48 h, read-out: Activity"}, "A549 [17]": {"system": "A549", "experiment": "Induction of apoptosis in human A549 cells assessed as early apoptotic cells at 2 uM after 48 hrs by annexin V-FITC and propidium iodide staining method (RVb = 0.01 %)", "assay_type": "functional"}, "A549 [18]": {"system": "A549", "experiment": "Induction of apoptosis in human A549 cells assessed as late apoptotic cells at 2 uM after 48 hrs by annexin V-FITC and propidium iodide staining method (RVb = 0.02 %)", "assay_type": "functional"}, "A549 [19]": {"system": "A549", "experiment": "Induction of apoptosis in human A549 cells assessed as necrotic cells at 2 uM after 48 hrs by annexin V-FITC and propidium iodide staining method (RVb = 0.04 %)", "assay_type": "functional"}, "A549 [20]": {"system": "A549", "experiment": "Induction of apoptosis in human A549 cells assessed as activation of caspase-3 activity at 1 to 2 uM after 48 hrs by ELISA relative to control", "assay_type": "functional"}, "A549 [21]": {"system": "A549", "experiment": "Induction of apoptosis in human A549 cells assessed as oligoneucleosomal DNA fragmentation at 1 to 2 uM after 48 hrs by agarose gel electrophoresis technique", "assay_type": "functional, cell-based"}, "A549 [22]": {"system": "A549", "experiment": "Induction of apoptosis in human A549 cells assessed as nuclear condensation at 2 uM after 48 hrs by Hoechst 33258 staining-based fluorescence microscopy relative to control", "assay_type": "functional, cell-based"}}, "note": "Active and inactive are the calls of the source. The calls are words filed in the database; no cut-off is given here.", "data": [{"smiles": "COc1cc2c(cc1OCCCCCCN1c3cccc4cccc(c34)S1(=O)=O)N=C[C@@H]1CCCN1C2=O", "values": [{"measurement": "IC50", "setting": "A549 [1]", "value": 1.05, "unit": "µM"}, {"measurement": "IC50", "setting": "A-431", "value": 1.72, "unit": "µM"}, {"measurement": "IC50", "setting": "COLO 205", "value": 1.21, "unit": "µM"}, {"measurement": "IC50", "setting": "PC-3", "value": 1.52, "unit": "µM"}, {"measurement": "Activity", "setting": "HEK293", "value": "Non-toxic"}, {"measurement": "ΔTm", "setting": "Nucleic Acid", "value": 7.6, "unit": "°C"}, {"measurement": "Activity", "setting": "A549 [2]", "value": 36.77, "unit": "%"}, {"measurement": "Activity", "setting": "A549 [3]", "value": 15.34, "unit": "%"}, {"measurement": "Activity", "setting": "A549 [4]", "value": 3.75, "unit": "%"}, {"measurement": "Activity", "setting": "A549 [5]", "value": 42.83, "unit": "%"}, {"measurement": "Activity", "setting": "A549 [6]", "value": 20.48, "unit": "%"}, {"measurement": "Activity", "setting": "A549 [7]", "value": 9.93, "unit": "%"}, {"measurement": "Activity", "setting": "A549 [8]", "value": 0.37, "unit": "%"}, {"measurement": "Activity", "setting": "A549 [9]", "value": 66.94, "unit": "%"}, {"measurement": "Activity", "setting": "A549 [10]", "value": "Dose-dependent effect"}, {"measurement": "Activity", "setting": "A549 [11]", "value": "Dose-dependent effect"}, {"measurement": "viability at 1 µM", "setting": "A549 [12]", "value": 40.6, "unit": "%"}, {"measurement": "Activity", "setting": "A549 [13]", "value": 32.55, "unit": "%"}, {"measurement": "Activity", "setting": "A549 [14]", "value": 24.94, "unit": "%"}, {"measurement": "Activity", "setting": "A549 [15]", "value": 1.93, "unit": "%"}, {"measurement": "viability at 2 µM", "setting": "A549 [16]", "value": 28.8, "unit": "%"}, {"measurement": "Activity", "setting": "A549 [17]", "value": 26.07, "unit": "%"}, {"measurement": "Activity", "setting": "A549 [18]", "value": 42.4, "unit": "%"}, {"measurement": "Activity", "setting": "A549 [19]", "value": 2.77, "unit": "%"}, {"measurement": "fold change (FC)", "setting": "A549 [20]", "value": 4}, {"measurement": "Activity", "setting": "A549 [21]", "value": "Active"}, {"measurement": "Activity", "setting": "A549 [22]", "value": "Active"}]}, {"smiles": "COc1cc2c(cc1OCCCCn1c(=C(C#N)C#N)c3cccc4cccc1c43)N=C[C@@H]1CCCN1C2=O", "values": [{"measurement": "IC50", "setting": "A549 [1]", "value": 25.5, "unit": "µM"}, {"measurement": "IC50", "setting": "A-431", "value": 2.5, "unit": "µM"}, {"measurement": "IC50", "setting": "COLO 205", "value": 2.95, "unit": "µM"}, {"measurement": "IC50", "setting": "PC-3", "value": 14.8, "unit": "µM"}, {"measurement": "Activity", "setting": "HEK293", "value": "Non-toxic"}, {"measurement": "ΔTm", "setting": "Nucleic Acid", "value": 2.7, "unit": "°C"}]}, {"smiles": "COc1cc2c(cc1OCCCCCN1c3cccc4cccc(c34)S1(=O)=O)N=C[C@@H]1CCCN1C2=O", "values": [{"measurement": "IC50", "setting": "A549 [1]", "value": 14.4, "unit": "µM"}, {"measurement": "IC50", "setting": "A-431", "value": 4.67, "unit": "µM"}, {"measurement": "IC50", "setting": "COLO 205", "value": 15.1, "unit": "µM"}, {"measurement": "IC50", "setting": "PC-3", "value": 9.7, "unit": "µM"}, {"measurement": "Activity", "setting": "HEK293", "value": "Non-toxic"}, {"measurement": "ΔTm", "setting": "Nucleic Acid", "value": 5.6, "unit": "°C"}]}, {"smiles": "COc1cc2c(cc1OCCCCCCN1C(=O)c3cccc4cccc1c34)N=C[C@@H]1CCCN1C2=O", "values": [{"measurement": "IC50", "setting": "A549 [1]", "value": 32.7, "unit": "µM"}, {"measurement": "IC50", "setting": "A-431", "value": 3.31, "unit": "µM"}, {"measurement": "IC50", "setting": "COLO 205", "value": 14.3, "unit": "µM"}, {"measurement": "IC50", "setting": "PC-3", "value": 4.89, "unit": "µM"}, {"measurement": "Activity", "setting": "HEK293", "value": "Non-toxic"}, {"measurement": "ΔTm", "setting": "Nucleic Acid", "value": 2.1, "unit": "°C"}]}, {"smiles": "COc1cc2c(cc1OCCCCCN1C(=O)c3cccc4cccc1c34)N=C[C@@H]1CCCN1C2=O", "values": [{"measurement": "IC50", "setting": "A549 [1]", "value": 21.9, "unit": "µM"}, {"measurement": "IC50", "setting": "A-431", "value": 3.71, "unit": "µM"}, {"measurement": "IC50", "setting": "COLO 205", "value": 9.76, "unit": "µM"}, {"measurement": "IC50", "setting": "PC-3", "value": 15.5, "unit": "µM"}, {"measurement": "Activity", "setting": "HEK293", "value": "Non-toxic"}, {"measurement": "ΔTm", "setting": "Nucleic Acid", "value": 5.2, "unit": "°C"}]}, {"smiles": "COc1cccc2c1C(=O)c1c(O)c3c(c(O)c1C2=O)C[C@@](O)(C(=O)CO)C[C@@H]3O[C@H]1C[C@H](N)[C@H](O)[C@H](C)O1", "note": "[DOXORUBICIN]", "values": [{"measurement": "IC50", "setting": "A-431", "value": 0.03, "unit": "µM"}, {"measurement": "IC50", "setting": "COLO 205", "value": 1.69, "unit": "µM"}, {"measurement": "IC50", "setting": "PC-3", "value": 2.51, "unit": "µM"}]}, {"smiles": "COc1cc2c(cc1OCCCN1C(=O)c3cccc4cccc1c34)N=C[C@@H]1CCCN1C2=O", "values": [{"measurement": "IC50", "setting": "A549 [1]", "value": 13.8, "unit": "µM"}, {"measurement": "IC50", "setting": "A-431", "value": 3.04, "unit": "µM"}, {"measurement": "IC50", "setting": "COLO 205", "value": 8.65, "unit": "µM"}, {"measurement": "IC50", "setting": "PC-3", "value": 7.67, "unit": "µM"}, {"measurement": "Activity", "setting": "HEK293", "value": "Non-toxic"}, {"measurement": "ΔTm", "setting": "Nucleic Acid", "value": 3.2, "unit": "°C"}]}]}
